Consider nine molecules from ChEMBL document CHEMBL1154360, “Cytotoxic and PTP1B inhibitory activities from Erythrina abyssinica” (Bioorg Med Chem Lett, 2009).

A value given as a limit tells only on which side of the number the result lay.

For one experiment, the system named is MCF7. The experiment in a line: Cytotoxicity against human adriamycin- resistant MCF7 cells by WST-1 assay. Type of experiment: functional, cell-based.
For the molecule `CC(C)=CCc1c(O)ccc2c1OC[C@H]1c3ccc4c(c3O[C@@H]21)OC(C)(C)C=C4` [ERYBREADIN D], the half-inhibitory concentration (IC50) came out at 12.7 µM.

With `CC(C)=CCc1cc2c(cc1O)O[C@H]1c3ccc(O)c(CC=C(C)C)c3OC[C@@H]21` [ERYBREADIN C], inhibition was half-maximal at 20.1 µM (IC50).

`COc1cc2c(cc1O)O[C@H]1c3cc(CC=C(C)C)c(OC)cc3OC[C@@H]21` [ERYTHRIBYSSIN C]: the IC50 was more than 30 µM.

For `CC(C)=CCc1cc2c(cc1O)OC[C@@]1(O)c3ccc4c(c3O[C@@H]21)C=CC(C)(C)O4` [ERYSUBIN E], the concentration for half-maximal inhibition (IC50) was more than 30 µM.

With `CC(C)=CCc1c(O)ccc2c1OC[C@H]1c3ccc(O)cc3O[C@@H]21`, the IC50 was more than 30 µM.

The molecule `COc1cc2c(cc1O)O[C@H]1c3cc(CC=C(C)C)c(O)cc3OC[C@@H]21` [ERYVARIN K] yielded an IC50 of more than 30 µM.

Molecule `CCCCCCCCCCCCCCCC(=O)C1=C(O)[C@@H](CO)OC1=O` showed an IC50 of more than 30 µM.

For `CC1(C)C=Cc2cc3c(cc2O1)OC[C@H]1c2ccc(O)cc2O[C@@H]31` [NEORAUTENOL], the IC50 is more than 30 µM.

On to `CC(C)=CCc1cc2c(cc1O)O[C@H]1c3ccc(O)cc3OC[C@@H]21` [SOPHORAPTEROCARPAN A], for which the IC50 is more than 30 µM.

The subject of another experiment is MDA-MB-231. The experiment in a line: Cytotoxicity against human MDA-MB-231 cells by WST-1 assay. Type of experiment: functional, cell-based. In general terms: Tetrazolium assays rely on reduction of a dye to a coloured formazan, in cell work by metabolically active cells.
As for `CC(C)=CCc1cc2c(cc1O)O[C@H]1c3ccc(O)c(CC=C(C)C)c3OC[C@@H]21` [ERYBREADIN C], 22.7 µM corresponded to half-maximal inhibition (IC50).

Take `COc1cc2c(cc1O)O[C@H]1c3cc(CC=C(C)C)c(OC)cc3OC[C@@H]21` [ERYTHRIBYSSIN C]: the IC50 is more than 30 µM.

For `CC(C)=CCc1cc2c(cc1O)OC[C@@]1(O)c3ccc4c(c3O[C@@H]21)C=CC(C)(C)O4` [ERYSUBIN E], the IC50 is more than 30 µM.

Take `CC(C)=CCc1c(O)ccc2c1OC[C@H]1c3ccc(O)cc3O[C@@H]21`: the IC50 was more than 30 µM.

The molecule `COc1cc2c(cc1O)O[C@H]1c3cc(CC=C(C)C)c(O)cc3OC[C@@H]21` [ERYVARIN K] yielded an IC50 of more than 30 µM.

As for `CCCCCCCCCCCCCCCC(=O)C1=C(O)[C@@H](CO)OC1=O`, the IC50 was more than 30 µM.

Take `CC1(C)C=Cc2cc3c(cc2O1)OC[C@H]1c2ccc(O)cc2O[C@@H]31` [NEORAUTENOL]: the IC50 is more than 30 µM.

For `CC(C)=CCc1cc2c(cc1O)O[C@H]1c3ccc(O)cc3OC[C@@H]21` [SOPHORAPTEROCARPAN A], the IC50 is more than 30 µM.

Another experiment addresses T1, Tyrosine-protein phosphatase non-receptor type 1 (Homo sapiens, UniProt P18031).
T1 sequence (P18031 whole entry): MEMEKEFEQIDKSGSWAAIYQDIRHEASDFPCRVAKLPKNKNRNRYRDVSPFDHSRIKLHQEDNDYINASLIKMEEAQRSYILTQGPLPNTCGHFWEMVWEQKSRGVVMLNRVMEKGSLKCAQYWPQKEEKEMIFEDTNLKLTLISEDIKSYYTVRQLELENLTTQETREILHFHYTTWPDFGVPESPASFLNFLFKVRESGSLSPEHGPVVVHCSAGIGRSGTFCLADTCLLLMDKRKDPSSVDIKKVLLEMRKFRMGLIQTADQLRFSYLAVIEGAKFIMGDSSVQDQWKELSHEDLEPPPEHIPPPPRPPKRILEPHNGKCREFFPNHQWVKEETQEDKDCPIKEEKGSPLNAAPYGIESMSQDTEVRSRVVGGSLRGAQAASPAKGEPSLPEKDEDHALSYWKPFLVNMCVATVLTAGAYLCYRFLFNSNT
The experiment in a line: Inhibition of human recombinant PTP1B assessed as p-nitrophenol production.
`CC(C)=CCc1c(O)ccc2c1OC[C@H]1c3ccc4c(c3O[C@@H]21)OC(C)(C)C=C4` [ERYBREADIN D]: the IC50 came to 6.4 µM.

In the case of `CC(C)=CCc1cc2c(cc1O)O[C@H]1c3ccc(O)c(CC=C(C)C)c3OC[C@@H]21` [ERYBREADIN C], the IC50 was determined as 7.3 µM.

As for `COc1cc2c(cc1O)O[C@H]1c3cc(CC=C(C)C)c(OC)cc3OC[C@@H]21` [ERYTHRIBYSSIN C], the IC50 was more than 30 µM.

Consider `CC(C)=CCc1cc2c(cc1O)OC[C@@]1(O)c3ccc4c(c3O[C@@H]21)C=CC(C)(C)O4` [ERYSUBIN E], for which the IC50 was 8.8 µM.

With `CC(C)=CCc1c(O)ccc2c1OC[C@H]1c3ccc(O)cc3O[C@@H]21`, the IC50 was found to be 19.5 µM.

In the case of `COc1cc2c(cc1O)O[C@H]1c3cc(CC=C(C)C)c(O)cc3OC[C@@H]21` [ERYVARIN K], the IC50 is more than 30 µM.

As for `CC1(C)C=Cc2cc3c(cc2O1)OC[C@H]1c2ccc(O)cc2O[C@@H]31` [NEORAUTENOL], the concentration for half-maximal inhibition (IC50) came to 7.6 µM.

Turning to `CC(C)=CCc1cc2c(cc1O)O[C@H]1c3ccc(O)cc3OC[C@@H]21` [SOPHORAPTEROCARPAN A], the IC50 is more than 30 µM.

For another experiment, the system named is MCF7. Nature of the experiment: Cytotoxicity against human MCF7 cells by WST-1 assay. Type of experiment: functional, cell-based.
`CC(C)=CCc1cc2c(cc1O)O[C@H]1c3ccc(O)c(CC=C(C)C)c3OC[C@@H]21` [ERYBREADIN C] yielded an IC50 of 14.8 µM.

`COc1cc2c(cc1O)O[C@H]1c3cc(CC=C(C)C)c(OC)cc3OC[C@@H]21` [ERYTHRIBYSSIN C] had an IC50 of more than 30 µM.

`CC(C)=CCc1cc2c(cc1O)OC[C@@]1(O)c3ccc4c(c3O[C@@H]21)C=CC(C)(C)O4` [ERYSUBIN E] returned an IC50 of more than 30 µM.

The molecule `CC(C)=CCc1c(O)ccc2c1OC[C@H]1c3ccc(O)cc3O[C@@H]21` yielded an IC50 of more than 30 µM.

For the molecule `COc1cc2c(cc1O)O[C@H]1c3cc(CC=C(C)C)c(O)cc3OC[C@@H]21` [ERYVARIN K], the IC50 was more than 30 µM.

`CCCCCCCCCCCCCCCC(=O)C1=C(O)[C@@H](CO)OC1=O`: the IC50 is more than 30 µM.

For the molecule `CC1(C)C=Cc2cc3c(cc2O1)OC[C@H]1c2ccc(O)cc2O[C@@H]31` [NEORAUTENOL], the IC50 was more than 30 µM.

In turn, `CC(C)=CCc1cc2c(cc1O)O[C@H]1c3ccc(O)cc3OC[C@@H]21` [SOPHORAPTEROCARPAN A] gave an IC50 of more than 30 µM.

For a further experiment, the system named is MCF7. The experiment in a line: Cytotoxicity against human tamoxifen-resistant MCF7 cells by WST-1 assay. Type of experiment: functional, cell-based.
`CC(C)=CCc1c(O)ccc2c1OC[C@H]1c3ccc4c(c3O[C@@H]21)OC(C)(C)C=C4` [ERYBREADIN D]: the IC50 is 7.8 µM.

Molecule `CC(C)=CCc1cc2c(cc1O)O[C@H]1c3ccc(O)c(CC=C(C)C)c3OC[C@@H]21` [ERYBREADIN C] showed an IC50 of 9.1 µM.

`COc1cc2c(cc1O)O[C@H]1c3cc(CC=C(C)C)c(OC)cc3OC[C@@H]21` [ERYTHRIBYSSIN C] had a 50% inhibitory concentration (IC50) of more than 30 µM.

As for `CC(C)=CCc1cc2c(cc1O)OC[C@@]1(O)c3ccc4c(c3O[C@@H]21)C=CC(C)(C)O4` [ERYSUBIN E], the IC50 is more than 30 µM.

In turn, `CC(C)=CCc1c(O)ccc2c1OC[C@H]1c3ccc(O)cc3O[C@@H]21` displayed an IC50 of more than 30 µM.

Regarding `COc1cc2c(cc1O)O[C@H]1c3cc(CC=C(C)C)c(O)cc3OC[C@@H]21` [ERYVARIN K], the IC50 is more than 30 µM.

Molecule `CCCCCCCCCCCCCCCC(=O)C1=C(O)[C@@H](CO)OC1=O` yielded an IC50 of more than 30 µM.

Regarding `CC1(C)C=Cc2cc3c(cc2O1)OC[C@H]1c2ccc(O)cc2O[C@@H]31` [NEORAUTENOL], the IC50 is more than 30 µM.

The molecule `CC(C)=CCc1cc2c(cc1O)O[C@H]1c3ccc(O)cc3OC[C@@H]21` [SOPHORAPTEROCARPAN A] showed an IC50 of more than 30 µM.

As usually defined, the IC50 is the concentration at which inhibition is half-maximal.
